In patent publication US20120282346A1, “BRIMONIDINE COMPOSITIONS FOR TREATING ERYTHEMA” (priority 2007, published 2012):

System: erythema
Conditions: high dosage gel (0.20% by weight brimonidine tartrate), applied topically each day for 28 days; across all visits (days 1, 14, 28), evaluated up to eight hours; patients with moderate to severe erythema; p<0.001
Description: A double-blind, placebo-controlled study was conducted at six centers of 110 patients with moderate to severe erythema. […] On days 1, 14, and 28, patients applied the gel under the supervision of clinical staff in the study centers, and were evaluated at set intervals for up to eight hours.
Evaluation led to a Clinician's Erythema Assessment Score (CEA). Each patients' erythema was rated on a scale from 0 to 4, with 0 being the rating for no erythema and 4 being the rating for extreme erythema.
Also, a side effect profile was established.

Brc1c(N=C2NCCN2)ccc2nccnc12.O=C(O)C(O)C(O)C(=O)O [brimonidine tartrate, 5-bromo-6-(2-imidazolidinylideneamino) quinoxaline L-tartrate]
reduction in the average CEA (Clinician's Erythema Assessment Score, scale 0 to 4): statistically significant reduction
